Laboratory results from EP0218400A1, “Assay methods for chemotherapeutic agents” (DAMON BIOTECH, INC., priority 1985, dated 1987).
Read-outs that look alike come from different tables or passages of the source.

Columns and labels:
[1] = test system: Human T cell lymphoma (MOLT-4) cells; experiment: In vitro drug pretreatment of encapsulated cells, then growth in the peritoneal cavity of mice; assay type: in vivo
Procedure: The encapsulated tumors are preferably incubated at 37° C in medium for 1 to 2 hours. A 25 percent (v/v) suspension can then be prepared (preferably without bovine serum). The suspension can be inoculated in the peritoneal cavity of the host animal (i.e., with a 16 gauge needle).
(§1) In the experiments that follow, the drugs and other agents tested were administered to the host animal by injection at the various times called for in the protocol being tested. At various periods after treatment, the mice were killed by cervical dislocation. The peritoneal cavity of each mouse was washed with PBS or medium and floating microcapsules were aspirated using a large bore plastic Pasteur pipette. Microcapsules were transferred to 15 ml tubes and washed 3 to 4 times with PBS to remove host peritoneal cells. The washed microcapsules were aspirated into 1 ml serological pipettes, allowed to sediment, and the volume of packed microcapsules was determined. Microcapsules were then transferred to a glas dounce homogenizer (7 ml volume) and disrupted with 3 strokes of an A-tolerance plumger. Cells suspensions were filtered through nylon mesh to remove the disrupted membranes. The suspensions containing tumor cells were centrifuged and the pellet was resuspended in 0.25 to 0.5 ml of complete medium. After mixing equal volumes of cell suspension and trypan blue, viable cell counts were determined using a hemocytometer.
(§2) The number of tumor cells per 1 ml of packed microcapsules was determined as follows: a = ? where b = total number of tumor cells in the suspension, and c = total volume of microcapsules used for the preparation of this suspension.
(§3) By comparing the number of tumor cells in 1 ml of microcapsules derived from non-treated and drug-treated mice, the percent inhibition of tumor cell growth was calculated: [formula] where ac = number of tumor cells from the non-treated control microcapsules, and ae = number of tumor cells from the drug treated microcapsules.
Human T cell lymphoma (MOLT-4) cells were encapsulated according to the procedures described above and incubated in vitro in RPMI I640 medium supplemented with 10 percent fetal calf serum, glutamine and antibiotics for one hour of 37°C. During incubation they were exposed to various concentrations of 1,3-B (2-chloroethyl)-1-nitrosourea (BCNU), 5-fluorouracil (5-FU) and adriamycin. The microcapsules were then washed and implanted into the peritoneal cavity (i.p.) of C57BL/6 mice (Animal Production Area NCI-Frederick Cancer Research Facility) using #18-14 needles. After seven days the mice were sacrificed and their peritoneal cavities were washed with PBS and aspirated to collect the microcapsules in a Pasteur pipette. The microcapsules were washed several times from the host peritoneal cells. The microcapsules from the individual mice were counted by transferring them into wells of a 96 well microplate. Using an inverted microscope, the numbers of microcapsules in each well were counted. Each well was washed out and microcapsules were transferred into the glass homogenizer.
Microcapsules were then disrupted, and the suspension was filtered, centrifugated and reconstituted with PBS. The concentration and total number of cells were counted using a hemocytometer.

[2] = test system: MOLT-4 human lymphoma cells; experiment: In vivo sensitivity of encapsulated MOLT-4 cells in nude mice, NCI schedule; conditions: Adriamycin 6 mg/kg, 15 days after transplantation
Procedure: as §1, §2, §3
In the next experiment various drugs were administered in vivo according to schedules and doses typically used for screening antitumor effects of the drugs at the National Cancer Institute, Developmental Therapeutics program.
MOLT-4 human lymphoma cells were encapsulated and transplanted into peritoneum of nude mice. Doses of various drugs were applied i.v. at 1, 5 and 9 days after tumor cell transplantation.

[3] = test system: human colon adenocarcinoma (HT-29) cells; experiment: In vivo growth of encapsulated HT-29 cells in C57BL/6 mice
Procedure: as §1, §2, §3
A second human cancer cell line was also used to further analyze in vivo effects of different drugs on the growth of tumors. Encapsulated human colon adenocarcinoma (HT-29) cells were again transplanted into C57BL/6 mice and various drugs were administered after 3 days either by intravenous or by intraperitoneal injection. Animals were sacrificed after 4 days and number of cells per capsule were counted to calculate inhibition rates for the various treatment procedures. […] In fact, 5-FU is a preferred chemotherapeutic agent for patients with gastrointestinal malignancies.

human Melanoma LOX cells = experiment: In vivo susceptibility of encapsulated LOX melanoma cells in nude mice; conditions: for sensitivity of encapsulated LOX cells to the treatment (in words): i.v. days 1, 5, 9; for No. of viable tumor cells per 1 ml. of capsules: i.v. days 1, 5, 9, Adriamycin 6, BCNU 20, CY 100, 5-Fu 60 mg/kg
Procedure: as §1, §2, §3
In this series of experiments, cells of a fourth human cancer type, Melanoma LOX cells, were used. LOX cells have recently been proposed as the model for experimental treatment at the NCI Development Therapeutics Program. Following i.p. inoculation of the suspension of LOX Melanoma cells into nude mice, various drugs were administered i.v. and survival of the treated mice was determined (Schoemaker et al., Proceeding American Association for Cancer Research, 26, 1302, 1985) (mice transplanted with the non-encapsulated tumor cells were considered tumor-free if they survived during 3 months of observation). In parallel experiments encapsulated LOX Melanoma cells were transferred into nude mice and drugs were inoculated i.v. 1, 5 and 9 days at the dose and schedule utilized by the Dr. Shoemaker's procedure.

LOX Melanoma cells = conditions: i.v.; Adriamycin 6, BCNU 20, CY 100, 5-Fu 60 mg/kg; survival during 3 months of observation; nude mice; cited from earlier work
MOLT-4 lymphoma cells = experiment: In vivo inhibition of encapsulated Molt-4 lymphoma growth in C57BL/6 mice; design: species or system human
Procedure: as §1, §2, §3
MOLT-4 lymphoma cells were also used in an in vivo assay. As before, the MOLT-4 cells were encapsulated and transplanted i.p. into C57BL/6 mice. On day 1 following the transplantation of the encapsulated cells, the mice were treated i.v. intravenous (i.v.) with BCNU, adriamycin or cyclophosphamide (CY). This approach allowed the testing of cyclophosphamide (CY) which is inefficient in vitro because it must be metabolized to obtain an active cytotoxic derivative. Ten days after transplantation, the encapsulated cells were retrieved and the tumor cells contained therein were counted. […]

[4] = test system: human lung carcinoma A549 cells; experiment: In vivo susceptibility of encapsulated A549 cells; conditions: i.v. days 2, 5, 9; for No. of tumor cells per 1 ml of capsules / percent Inhibition: Adriamycin 6, BCNU 20, CY 100 mg/kg
Procedure: as §1, §2, §3
The sensitivity of human lung carcinoma A549 cells to the drugs was assessed 12 and 14 days after transplantation of encapsulated tumor cells. The treatments were applied i.v. 2, 5 and 9 days after microcapsule transplantation (Table 5).

Original P388 cells = experiment: In vivo growth of encapsulated original P388 lymphoma cells in nude mice; conditions: for inhibition at 100 mg/kg: Mus musculus, P388, iv
Procedure: as §1, §2, §3
(§4) Since drug-resistance is one of the most important causes of failure in chemotherapy, it is crucial that a predictive assay be able to distinguish between effective and non-effective drugs for particular tumors. […] One day later the mice received by i.v. administration Adriamycin (6 mg/kg), Vinblastin (1 mg/kg) or Cyclophosphamide (100 mg/kg). Five days after administration some of the mice were sacrificed, the microcapsules were recovered and the numbers of tumor cells inside the capsules were determined. The remaining mice received a second administration and the microcapsules were recovered from the remaining mice 3 days afterwards. The results are shown in Table 7 and correlate well with the known characteristics of P388 cell line and its variant.

P388 Resistant Cells = experiment: In vivo growth of encapsulated adriamycin-resistant P388 lymphoma cells in nude mice; conditions: for inhibition at 100 mg/kg: Mus musculus, P388, iv
Procedure: as §1, §2, §3, §4

[5] = 25 µg/ml in vitro for one hour, then 7 days i.p. in C57BL/6 mice
[6] = 100 µg/ml in vitro for one hour, then 7 days i.p. in C57BL/6 mice
[7] = Mus musculus, MOLT-4, iv, 360 h, i.v. days 1, 5, 9, Cyclophosphamide 100 mg/kg, 5-Fu 60 mg/kg, nude mice
[8] = i.v. days 1, 5, 9, Cyclophosphamide 100 mg/kg, 5-Fu 60 mg/kg, nude mice
[9] = Mus musculus, HT-29, ip, i.p. 3 days after transplantation, 5-Fu 150 mg/kg, CY 250 mg/kg, Adriamycin 20 mg/kg, 4 days
[10] = i.p. 3 days after transplantation, 5-Fu 150 mg/kg, CY 250 mg/kg, Adriamycin 20 mg/kg, 4 days
[11] = Mus musculus, MOLT-4, iv, i.v. on day 1, Adriamycin 10 mg/kg, BCNU 100 mg/kg, CY 200 mg/kg, capsules retrieved ten days after transplantation
[12] = i.v. on day 1, Adriamycin 10 mg/kg, BCNU 100 mg/kg, CY 200 mg/kg, capsules retrieved ten days after transplantation
[13] = 5 + 3 days after treatment (3 days after second administration), Adriamycin 6, Vinblastin 1, Cyclophosphamide 100 mg/kg i.v.
[14] = 5 days after treatment, i.v. one day after inoculation, Adriamycin 6, Vinblastin 1, Cyclophosphamide 100 mg/kg
[15] = 72 h, 5 + 3 days after treatment (3 days after second administration), Adriamycin 6, Vinblastin 1, Cyclophosphamide 100 mg/kg i.v.

Structure (SMILES)	No. of tumor cells per capsule [1, 5]	No. of tumor cells per capsule [1, 6]	No of viable tumor cells per 1 ml of capsules [2, 8]	No. of cells per capsule [3, 10]	Total No. of tumor cells [3, 10]	sensitivity of encapsulated LOX cells to the treatment (in words) (human Melanoma LOX cells)	No. of viable tumor cells per 1 ml. of capsules (human Melanoma LOX cells)	% survived mice transplanted with nonencapsulated tumor cells (LOX Melanoma cells) [%]	No. of cells per capsule (MOLT-4 lymphoma cells; [12])	Total No. of tumor cells (MOLT-4 lymphoma cells; [12])	No. of tumor cells per 1 ml of capsules ([4]; 12 days after transplantation)	percent Inhibition ([4]; 12 days after transplantation) [%]	No. of tumor cells per 1 ml of capsules ([4]; 14 days after transplantation)	percent Inhibition ([4]; 14 days after transplantation) [%]	No. cells/ml (Original P388 cells; [13])	No. cells/ml (Original P388 cells; [14])	No. cells/ml (P388 Resistant Cells; [13])	No. cells/ml (P388 Resistant Cells; [14])	further results
O=c1[nH]cc(F)c(=O)[nH]1 [5-Fu, 5-fluorouracil]	3 x 10^3	10^2	41.0 x 10^6	0.6 x 10^4	0.6 x 10^6	least efficient	29 x 10^5	0	–	–	–	–	–	–	–	–	–	–	inhibition at 25 µg/mL ([1]; Mus musculus, MOLT-4, ip, 25 µg/ml in vitro for one hour, then 7 days i.p. in C57BL/6 mice, read-out: % Inhibition): 40%; inhibition at 100 µg/mL ([1]; Mus musculus, MOLT-4, ip, 100 µg/ml in vitro for one hour, then 7 days i.p. in C57BL/6 mice, read-out: % Inhibition): 98%; inhibition of tumor cell proliferation (in words) ([2]; 5-FU 60 mg/kg i.v. days 1, 5, 9): significantly less efficient; inhibition at 60 mg/kg [2, 7]: 30%; inhibition at 150 mg/kg [3, 9]: 70%; sensitivity of encapsulated HT-29 cells (in words) ([3]; in vivo): more sensitive to 5-FU than to the other drugs tested
O=NN(CCCl)C(=O)NCCCl [BCNU, 1,3-B (2-chloroethyl)-1-nitrosourea]	1 x 10^4	0.1 x 10^4	–	–	–	most sensitive	2 x 10^5	50	1222	27 x 10^4	7.0 x 10^5	88	15.7 x 10^5	81	–	–	–	–	No. of tumor cells per capsule ([1]; 6 µg/ml in vitro for one hour, then 7 days i.p. in C57BL/6 mice): 1 x 10^4; inhibition at 6 µg/mL ([1]; Mus musculus, MOLT-4, ip): 86%; inhibition at 25 µg/mL ([1]; Mus musculus, MOLT-4, ip): 86%; inhibition at 100 µg/mL ([1]; Mus musculus, MOLT-4, ip): 98%; inhibition at 100 mg/kg (MOLT-4 lymphoma cells; [11]): 55%; reduction of the numbers of tumor cells (in words) [4]: more efficient in this respect than CY
O=P1(N(CCCl)CCCl)NCCCO1 (centres unmarked) [CY, cyclophosphamide]	–	–	1.9 x 10^6	1.6 x 10^4	1.1 x 10^6	most sensitive	0.7 x 10^5	40	171	10 x 10^4	13.5 x 10^5	78	39.0 x 10^5	53	1.3 x 10^6	0.4 x 10^6	1.1 x 10^6	0.4 x 10^6	inhibition at 200 mg/kg (MOLT-4 lymphoma cells; [11]): 93.7%; reduction of the number of viable tumor cells in the capsules (in words) (MOLT-4 lymphoma cells; i.v. on day 1, ten days after transplantation): more effective than BCNU; inhibition at 100 mg/kg [2, 7]: 97%; inhibition at 250 mg/kg [3, 9]: 20%; inhibition at 100 mg/kg (Original P388 cells; [15]): 97%; inhibition at 100 mg/kg (Original P388 cells; [14]): 98%; inhibition at 100 mg/kg (P388 Resistant Cells; [15]): 96%; inhibition at 100 mg/kg (P388 Resistant Cells; Cyclophosphamide 100 mg/kg i.v., both time points): 96 to 98%; inhibition at 100 mg/kg (P388 Resistant Cells; [14]): 98%
CCC1(O)CC2CN(CCc3c([nH]c4ccccc34)C(C(=O)OC)(c3cc4c(cc3OC)N(C)C3C(O)(C(=O)OC)C(OC(C)=O)C5(CC)C=CCN6CCC43C65)C2)C1 (centres unmarked) [Vinblastin]	–	–	–	–	–	–	–	–	–	–	–	–	–	–	6 x 10^6	9 x 10^6	23 x 10^6	15 x 10^6	% Inhibition (Original P388 cells; [13]): 89%; % Inhibition (Original P388 cells; [14]): 60%; % Inhibition (P388 Resistant Cells; [13]): 21%; % Inhibition (P388 Resistant Cells; [14]): 12%; inhibiting the growth of the drug-resistant variant (in words) (P388 Resistant Cells; Adriamycin 6 mg/kg, Vinblastin 1 mg/kg i.v.): Neither Adriamycin nor Vinblastin in the doses administered was effective
